Data: the NIST ThermoML archive (doi:10.1016/j.jct.2005.12.005)

How the values were obtained:
[1] = xn = mol fraction of the nth substance listed; conditions: 101 kPa, Liquid; for speed of sound: Sing-around technique in a fixed-path interferometer
[2] = refractive index (Na D-line) (dimensionless); xn = mol fraction of the nth substance listed; conditions: 101 kPa, Liquid

Cc1cc(C)cc(C)c1 [1,3,5-trimethylbenzene] + CC1CCCCC1
Conditions | mass density, 298.15 K [kg/m3] | mass density, 303.15 K [kg/m3] | mass density, 308.15 K [kg/m3] | refractive index, 298.15 K | refractive index, 303.15 K | refractive index, 308.15 K | speed of sound, 298.15 K [m/s] | viscosity, 298.15 K [mPa·s] | viscosity, 303.15 K [mPa·s] | viscosity, 308.15 K [mPa·s]
[1], x2 = 0 | 861.2 | 857.1 | 853 | – | – | – | 1346 | 0.667 | 0.622 | 0.586
[1], x2 = 0.1007 | 851.6 | 847.5 | 843.3 | – | – | – | 1328 | 0.653 | 0.612 | 0.577
[1], x2 = 0.1993 | 842 | 837.9 | 833.8 | – | – | – | 1312 | 0.638 | 0.6 | 0.569
[1], x2 = 0.3035 | 832 | 827.9 | 823.7 | – | – | – | 1295 | 0.629 | 0.592 | 0.559
[1], x2 = 0.4063 | 822 | 817.9 | 813.7 | – | – | – | 1280 | 0.622 | 0.584 | 0.553
[1], x2 = 0.4974 | 813.1 | 808.9 | 804.8 | – | – | – | 1267 | 0.62 | 0.603 | 0.547
[1], x2 = 0.6085 | 802.2 | 798.1 | 793.9 | – | – | – | 1253 | 0.621 | 0.582 | 0.548
[1], x2 = 0.7027 | 793.1 | 788.9 | 784.7 | – | – | – | 1244 | 0.627 | 0.588 | 0.553
[1], x2 = 0.7973 | 784 | 779.7 | 775.5 | – | – | – | 1235 | 0.638 | 0.598 | 0.566
[1], x2 = 0.902 | 774.1 | 769.8 | 765.6 | – | – | – | 1225 | 0.654 | 0.622 | 0.575
[2], x2 = 0 | – | – | – | 1.496 | 1.4936 | 1.4913 | – | – | – | –
[2], x2 = 0.1007 | – | – | – | 1.489 | 1.4865 | 1.4843 | – | – | – | –
[2], x2 = 0.1993 | – | – | – | 1.4817 | 1.4809 | 1.4771 | – | – | – | –
[2], x2 = 0.3035 | – | – | – | 1.474 | 1.473 | 1.4692 | – | – | – | –
[2], x2 = 0.4063 | – | – | – | 1.4663 | 1.4647 | 1.4614 | – | – | – | –
[2], x2 = 0.4974 | – | – | – | 1.4593 | 1.4565 | 1.4544 | – | – | – | –
[2], x2 = 0.6085 | – | – | – | 1.4508 | 1.4529 | 1.4459 | – | – | – | –
[2], x2 = 0.7027 | – | – | – | 1.4436 | 1.4421 | 1.4386 | – | – | – | –
[2], x2 = 0.7973 | – | – | – | 1.4363 | 1.4347 | 1.4312 | – | – | – | –
[2], x2 = 0.902 | – | – | – | 1.4285 | 1.4265 | 1.4233 | – | – | – | –

Cc1ccc(C)cc1 [1,4-dimethylbenzene] + CC1CCCCC1
x2 = 0
Conditions | mass density, 298.15 K [kg/m3] | mass density, 303.15 K [kg/m3] | mass density, 308.15 K [kg/m3] | refractive index, 298.15 K | refractive index, 303.15 K | refractive index, 308.15 K | speed of sound, 298.15 K [m/s] | viscosity, 298.15 K [mPa·s] | viscosity, 303.15 K [mPa·s] | viscosity, 308.15 K [mPa·s]
[1] | 856.7 | 852.3 | 848 | – | – | – | 1326 | 0.611 | 0.572 | 0.54
[2] | – | – | – | 1.4926 | 1.4893 | 1.4867 | – | – | – | –

COc1ccccc1 [anisole] + CC1CCCCC1
Conditions | mass density, 298.15 K [kg/m3] | mass density, 303.15 K [kg/m3] | mass density, 308.15 K [kg/m3] | refractive index, 298.15 K | refractive index, 303.15 K | refractive index, 308.15 K | speed of sound, 298.15 K [m/s] | viscosity, 298.15 K [mPa·s] | viscosity, 303.15 K [mPa·s] | viscosity, 308.15 K [mPa·s]
[1], x2 = 0 | 989.2 | 984.5 | 979.8 | – | – | – | 1410 | 1.008 | 0.929 | 0.861
[1], x2 = 0.1025 | 962.1 | 957.4 | 952.7 | – | – | – | 1391 | 0.924 | 0.905 | 0.808
[1], x2 = 0.2009 | 936.5 | 931.8 | 927.2 | – | – | – | 1372 | 0.854 | 0.792 | 0.737
[1], x2 = 0.3006 | 911.8 | 907.2 | 902.6 | – | – | – | 1352 | 0.793 | 0.734 | 0.693
[1], x2 = 0.406 | 886.7 | 882.2 | 877.6 | – | – | – | 1333 | 0.75 | 0.694 | 0.654
[1], x2 = 0.5043 | 864.4 | 860.1 | 855.4 | – | – | – | 1314 | 0.717 | 0.664 | 0.627
[1], x2 = 0.6058 | 842.2 | 837.8 | 833.3 | – | – | – | 1294 | 0.689 | 0.645 | 0.605
[1], x2 = 0.7026 | 821.9 | 817.3 | 813 | – | – | – | 1275 | 0.675 | 0.634 | 0.593
[1], x2 = 0.8023 | 801.8 | 797.4 | 792.9 | – | – | – | 1256 | 0.667 | 0.621 | 0.584
[1], x2 = 0.9053 | 782.1 | 777.8 | 773.4 | – | – | – | 1236 | 0.666 | 0.622 | 0.583
[2], x2 = 0 | – | – | – | 1.5136 | 1.5112 | 1.5088 | – | – | – | –
[2], x2 = 0.1025 | – | – | – | 1.5023 | 1.5036 | 1.4978 | – | – | – | –
[2], x2 = 0.2009 | – | – | – | 1.4917 | 1.489 | 1.487 | – | – | – | –
[2], x2 = 0.3006 | – | – | – | 1.4813 | 1.4801 | 1.4766 | – | – | – | –
[2], x2 = 0.406 | – | – | – | 1.4706 | 1.4701 | 1.4659 | – | – | – | –
[2], x2 = 0.5043 | – | – | – | 1.4609 | 1.4586 | 1.4563 | – | – | – | –
[2], x2 = 0.6058 | – | – | – | 1.4516 | 1.4497 | 1.4467 | – | – | – | –
[2], x2 = 0.7026 | – | – | – | 1.4431 | 1.4408 | 1.4382 | – | – | – | –
[2], x2 = 0.8023 | – | – | – | 1.4351 | 1.4323 | 1.4301 | – | – | – | –
[2], x2 = 0.9053 | – | – | – | 1.4278 | 1.4242 | 1.4226 | – | – | – | –

c1ccccc1 [benzene] + CC1CCCCC1
x2 = 0
Conditions | mass density, 298.15 K [kg/m3] | mass density, 303.15 K [kg/m3] | mass density, 308.15 K [kg/m3] | refractive index, 298.15 K | refractive index, 303.15 K | refractive index, 308.15 K | speed of sound, 298.15 K [m/s] | viscosity, 298.15 K [mPa·s] | viscosity, 303.15 K [mPa·s] | viscosity, 308.15 K [mPa·s]
[1] | 873.4 | 868.1 | 862.7 | – | – | – | 1302 | 0.602 | 0.56 | 0.523
[2] | – | – | – | 1.4971 | 1.4936 | 1.4903 | – | – | – | –

CC1CCCCC1 [methylcyclohexane] + COc1ccccc1
x1 = 1
Conditions | mass density, 298.15 K [kg/m3] | mass density, 303.15 K [kg/m3] | mass density, 308.15 K [kg/m3] | refractive index, 298.15 K | refractive index, 303.15 K | refractive index, 308.15 K | speed of sound, 298.15 K [m/s] | viscosity, 298.15 K [mPa·s] | viscosity, 303.15 K [mPa·s] | viscosity, 308.15 K [mPa·s]
[1] | 765 | 760.7 | 756.3 | – | – | – | 1217 | 0.676 | 0.631 | 0.59
[2] | – | – | – | 1.4217 | 1.4192 | 1.4163 | – | – | – | –

CC1CCCCC1 [methylcyclohexane] + Cc1cc(C)cc(C)c1
x1 = 1
Conditions | mass density, 298.15 K [kg/m3] | mass density, 303.15 K [kg/m3] | mass density, 308.15 K [kg/m3] | refractive index, 298.15 K | refractive index, 303.15 K | refractive index, 308.15 K | speed of sound, 298.15 K [m/s] | viscosity, 298.15 K [mPa·s] | viscosity, 303.15 K [mPa·s] | viscosity, 308.15 K [mPa·s]
[1] | 765 | 760.7 | 756.3 | – | – | – | 1217 | 0.676 | 0.631 | 0.59
[2] | – | – | – | 1.4217 | 1.4192 | 1.4163 | – | – | – | –
